Source: PubChem BioAssay (NCI)
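Five compound concentrations were applied to cells in 96-well plates for 48 hours; endpoints were derived by simple linear interpolation of the resulting dose-response curve. GI50 is the concentration that inhibits growth by half. TGI: concentration producing complete growth inhibition.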

Experiments:
Test in all cases: DTP human tumour cell line panel, 48 h
SF-268 CNS = tested on: SF-268 CNS
SK-MEL-2 melanoma = tested on: SK-MEL-2 melanoma
HT29 colon = tested on: HT29 colon
T-47D breast = tested on: T-47D breast
RXF 393 renal = tested on: RXF 393 renal
OVCAR-3 ovarian = tested on: OVCAR-3 ovarian
ACHN renal = tested on: ACHN renal
RPMI-8226 leukemia = tested on: RPMI-8226 leukemia
MCF7 breast = tested on: MCF7 breast
BT-549 breast = tested on: BT-549 breast
SW-620 colon = tested on: SW-620 colon
SK-MEL-5 melanoma = tested on: SK-MEL-5 melanoma
SK-OV-3 ovarian = tested on: SK-OV-3 ovarian
MALME-3M melanoma = tested on: MALME-3M melanoma
CCRF-CEM leukemia = tested on: CCRF-CEM leukemia
HCC-2998 colon = tested on: HCC-2998 colon
UACC-257 melanoma = tested on: UACC-257 melanoma
SN12C renal = tested on: SN12C renal
LOX IMVI melanoma = tested on: LOX IMVI melanoma
HS 578T breast = tested on: HS 578T breast
SNB-19 CNS = tested on: SNB-19 CNS
OVCAR-5 ovarian = tested on: OVCAR-5 ovarian
HCT-15 colon = tested on: HCT-15 colon
COLO 205 colon = tested on: COLO 205 colon
UACC-62 melanoma = tested on: UACC-62 melanoma
NCI-H522 lung = tested on: NCI-H522 lung
A549 NSCLC = tested on: A549 NSCLC
KM12 colon = tested on: KM12 colon
CAKI-1 renal = tested on: CAKI-1 renal
NCI-H226 lung = tested on: NCI-H226 lung
HCT-116 colon = tested on: HCT-116 colon
HOP-62 NSCLC = tested on: HOP-62 NSCLC
OVCAR-8 ovarian = tested on: OVCAR-8 ovarian
HL-60(TB) leukemia = tested on: HL-60(TB) leukemia
U251 CNS = tested on: U251 CNS
IGROV1 ovarian = tested on: IGROV1 ovarian
NCI-H460 lung = tested on: NCI-H460 lung
A498 renal = tested on: A498 renal
SR leukemia = tested on: SR leukemia
SNB-75 CNS = tested on: SNB-75 CNS
OVCAR-4 ovarian = tested on: OVCAR-4 ovarian
HOP-92 NSCLC = tested on: HOP-92 NSCLC
EKVX NSCLC = tested on: EKVX NSCLC
MDA-MB-435 = tested on: MDA-MB-435
786-0 renal = tested on: 786-0 renal
UO-31 renal = tested on: UO-31 renal
DU-145 prostate = tested on: DU-145 prostate
TK-10 renal = tested on: TK-10 renal
K-562 leukemia = tested on: K-562 leukemia
NCI-H23 lung = tested on: NCI-H23 lung
PC-3 prostate = tested on: PC-3 prostate
MOLT-4 leukemia = tested on: MOLT-4 leukemia
M14 melanoma = tested on: M14 melanoma
MDA-MB-231 breast = tested on: MDA-MB-231 breast
SK-MEL-28 melanoma = tested on: SK-MEL-28 melanoma
SF-295 CNS = tested on: SF-295 CNS
NCI/ADR-RES ovarian = tested on: NCI/ADR-RES ovarian
SF-539 CNS = tested on: SF-539 CNS

COc1ccc(N2C(=O)C3c4[nH]c5ccc(C)cc5c4C4CCC(c5ccccc5)CC4C3C2=O)cc1 (stereo unspecified)
TGI (SF-268 CNS): > 100 µM | TGI (SK-MEL-2 melanoma): > 69.4 µM | TGI (HT29 colon): > 100 µM | TGI (T-47D breast): > 100000 nM | TGI (RXF 393 renal): 41 µM | TGI (OVCAR-3 ovarian): > 100 µM | TGI (ACHN renal): > 100 µM | TGI (RPMI-8226 leukemia): > 100 µM | TGI (MCF7 breast): > 100 µM | TGI (BT-549 breast): > 100 µM | TGI (SW-620 colon): > 100 µM | TGI (SK-MEL-5 melanoma): > 100 µM | TGI (SK-OV-3 ovarian): > 100 µM | TGI (MALME-3M melanoma): > 100 µM | TGI (CCRF-CEM leukemia): > 55500 nM | TGI (HCC-2998 colon): > 100 µM | TGI (UACC-257 melanoma): > 100 µM | TGI (SN12C renal): > 100 µM | TGI (LOX IMVI melanoma): > 100 µM | TGI (HS 578T breast): > 73.4 µM | TGI (SNB-19 CNS): > 66.5 µM | TGI (OVCAR-5 ovarian): > 100 µM | TGI (HCT-15 colon): > 100 µM | TGI (COLO 205 colon): > 100 µM | TGI (UACC-62 melanoma): > 79.5 µM | TGI (NCI-H522 lung): > 100000 nM | TGI (A549 NSCLC): > 100 µM | TGI (KM12 colon): > 100 µM | TGI (CAKI-1 renal): > 72.5 µM | TGI (NCI-H226 lung): > 100 µM | TGI (HCT-116 colon): > 100 µM | TGI (HOP-62 NSCLC): 26.8 µM | TGI (OVCAR-8 ovarian): > 83.9 µM | TGI (HL-60(TB) leukemia): > 100 µM | TGI (U251 CNS): 98.6 µM | TGI (IGROV1 ovarian): > 100 µM | TGI (NCI-H460 lung): > 100000 nM | TGI (A498 renal): > 68.8 µM | TGI (SR leukemia): 23.6 µM | TGI (SNB-75 CNS): 12 µM | TGI (OVCAR-4 ovarian): > 82.3 µM | TGI (HOP-92 NSCLC): > 90.2 µM | TGI (EKVX NSCLC): > 100 µM | TGI (MDA-MB-435): > 100 µM | TGI (786-0 renal): > 62.2 µM | TGI (UO-31 renal): > 100 µM | TGI (DU-145 prostate): > 100 µM | TGI (TK-10 renal): > 75.3 µM | TGI (K-562 leukemia): 98.9 µM | TGI (NCI-H23 lung): > 100 µM | TGI (PC-3 prostate): > 100 µM | TGI (MOLT-4 leukemia): > 100000 nM | TGI (M14 melanoma): > 100 µM | TGI (MDA-MB-231 breast): > 49.5 µM | TGI (SK-MEL-28 melanoma): > 100 µM | TGI (SF-295 CNS): > 100 µM | TGI (NCI/ADR-RES ovarian): > 100 µM

CS(=O)(=O)Nc1ccc(Nc2c3ccccc3nc3cc(N)ccc23)cc1
GI50 (SF-268 CNS): 22.2 nM | TGI (SF-268 CNS): 5.69 µM | GI50 (SK-MEL-2 melanoma): 2260 nM | TGI (SK-MEL-2 melanoma): 7.04 µM | GI50 (HT29 colon): 5.15 µM | TGI (HT29 colon): 31.7 µM | GI50 (T-47D breast): 80.6 nM | TGI (T-47D breast): 2520 nM | GI50 (RXF 393 renal): 12.5 µM | TGI (RXF 393 renal): 34.9 µM | GI50 (OVCAR-3 ovarian): 1700 nM | TGI (OVCAR-3 ovarian): 8.83 µM | GI50 (ACHN renal): 231 nM | TGI (ACHN renal): 17.8 µM | GI50 (RPMI-8226 leukemia): 567 nM | TGI (RPMI-8226 leukemia): 6.84 µM | GI50 (MCF7 breast): 52 nM | TGI (MCF7 breast): 9.16 µM | GI50 (BT-549 breast): 1350 nM | TGI (BT-549 breast): 8.41 µM | GI50 (SW-620 colon): 561 nM | TGI (SW-620 colon): 30 µM | GI50 (SK-MEL-5 melanoma): 615 nM | TGI (SK-MEL-5 melanoma): 5.45 µM | GI50 (SK-OV-3 ovarian): 1310 nM | TGI (SK-OV-3 ovarian): 27.7 µM | GI50 (MALME-3M melanoma): 620 nM | TGI (MALME-3M melanoma): 3.66 µM | GI50 (CCRF-CEM leukemia): 77.6 nM | TGI (CCRF-CEM leukemia): 2040 nM | GI50 (HCC-2998 colon): 5.22 µM | TGI (HCC-2998 colon): 24.4 µM | GI50 (UACC-257 melanoma): 1480 nM | TGI (UACC-257 melanoma): 14.9 µM | GI50 (SN12C renal): 150 nM | TGI (SN12C renal): 4.88 µM | GI50 (LOX IMVI melanoma): 418 nM | TGI (LOX IMVI melanoma): 15.2 µM | GI50 (HS 578T breast): 1720 nM | TGI (HS 578T breast): 13.4 µM | GI50 (SNB-19 CNS): 241 nM | TGI (SNB-19 CNS): 15.4 µM | GI50 (OVCAR-5 ovarian): 5.57 µM | TGI (OVCAR-5 ovarian): 39.7 µM | GI50 (HCT-15 colon): 11 µM | TGI (HCT-15 colon): > 100 µM | GI50 (COLO 205 colon): 2510 nM | TGI (COLO 205 colon): 20 µM | GI50 (UACC-62 melanoma): 555 nM | TGI (UACC-62 melanoma): 14.8 µM | GI50 (NCI-H522 lung): 164 nM | TGI (NCI-H522 lung): 2690 nM | GI50 (A549 NSCLC): 62 nM | TGI (A549 NSCLC): 15.6 µM | GI50 (KM12 colon): 499 nM | TGI (KM12 colon): 7.14 µM | GI50 (CAKI-1 renal): 319 nM | TGI (CAKI-1 renal): 13 µM | GI50 (NCI-H226 lung): 246 nM | TGI (NCI-H226 lung): 3.89 µM | GI50 (HCT-116 colon): 717 nM | TGI (HCT-116 colon): 29.2 µM | GI50 (HOP-62 NSCLC): 260 nM | TGI (HOP-62 NSCLC): 10.2 µM | GI50 (OVCAR-8 ovarian): 376 nM | TGI (OVCAR-8 ovarian): 22.2 µM | GI50 (HL-60(TB) leukemia): 769 nM | TGI (HL-60(TB) leukemia): 8.51 µM | GI50 (U251 CNS): 79.4 nM | TGI (U251 CNS): 1.3 µM | GI50 (IGROV1 ovarian): 5.38 µM | TGI (IGROV1 ovarian): > 73.6 µM | GI50 (NCI-H460 lung): 25.5 nM | TGI (NCI-H460 lung): 2600 nM | GI50 (A498 renal): 1320 nM | TGI (A498 renal): 17.4 µM | GI50 (SR leukemia): 35 nM | TGI (SR leukemia): 1.19 µM | GI50 (SNB-75 CNS): 726 nM | TGI (SNB-75 CNS): 12.4 µM | GI50 (OVCAR-4 ovarian): 2920 nM | TGI (OVCAR-4 ovarian): 26.8 µM | GI50 (HOP-92 NSCLC): 398 nM | TGI (HOP-92 NSCLC): 4.4 µM | GI50 (MDA-MB-435): 5.79 µM | TGI (MDA-MB-435): 21.6 µM | GI50 (786-0 renal): 277 nM | TGI (786-0 renal): 4.66 µM | GI50 (UO-31 renal): 3.13 µM | TGI (UO-31 renal): > 100 µM | GI50 (DU-145 prostate): 480 nM | TGI (DU-145 prostate): 26 µM | GI50 (TK-10 renal): 6.08 µM | TGI (TK-10 renal): 31.7 µM | GI50 (K-562 leukemia): 1310 nM | TGI (K-562 leukemia): 23.9 µM | GI50 (NCI-H23 lung): 436 nM | TGI (NCI-H23 lung): 12.8 µM | GI50 (PC-3 prostate): 1310 nM | TGI (PC-3 prostate): 27.1 µM | GI50 (MOLT-4 leukemia): 19.4 nM | TGI (MOLT-4 leukemia): 987 nM | GI50 (M14 melanoma): 361 nM | TGI (M14 melanoma): 7.1 µM | GI50 (MDA-MB-231 breast): 12.4 µM | TGI (MDA-MB-231 breast): 34 µM | GI50 (SK-MEL-28 melanoma): 1900 nM | TGI (SK-MEL-28 melanoma): 16.2 µM | GI50 (SF-295 CNS): 227 nM | TGI (SF-295 CNS): 6.79 µM | GI50 (SF-539 CNS): 531 nM | TGI (SF-539 CNS): 9.47 µM | GI50 (NCI/ADR-RES ovarian): > 100 µM | TGI (NCI/ADR-RES ovarian): > 100 µM
